According to patent publication EP0993460B1, “BENZO(5,6)CYCLOHEPTA(1,2B)PYRIDINE DERIVATIVES USEFUL FOR INHIBITION OF FARNESYL PROTEIN TRANSFERASE” (SCHERING CORPORATION, priority 1997, dated 1998):

System: COS Cell
Assay: COS Cell IC50 (Cell-Based Assay), procedures of WO 95/10516
Protocol: FPT IC50 (inhibition of farnesyl protein transferase, in vitro enzyme assay) and COS Cell IC50 (Cell-Based Assay) were determined following the assay procedures described in WO 95/10516, published April 20, 1995. GGPT IC50 (inhibition of geranylgeranyl protein transferase, in vitro enzyme assay), Cell Mat Assay, and anti-tumor activity (in vivo anti-tumor studies) could be determined by the assay procedures described in WO 95/ 10516. The disclosure of WO 95/10516 is incorporated herein by reference thereto.

CC1(CC(=O)N2CCC([C@H]3c4ncc(Br)cc4CCc4cc(Cl)cc(Br)c43)CC2)CCN(S(C)(=O)=O)CC1 [Example 1, (+) -4-(3,10-dibromo-8-chloro-6,11-dihydro-5H-benzo[5,6]cyclohepta[1,2-b]pyridin-11(R)-yl)-1-[[4-methyl-1-(methylsulfonyl)-4-pyridinyl]acetyl]piperidine]
IC50: 22 nM
